Experimental data: US5229410A, “6-substituted-hexahydrobenz[cd]indoles” (Eli Lilly and Company, priority 1991, dated 1993)
Where two headings read alike, the source gives them in different places.

Assays:
[1] = target: T1, central 5-HT1D binding sites (Bos taurus, UniProt F1MGM3); assay: 5-HT1D binding ([3H]5-HT displacement, bovine caudate nuclei membranes)
T1 construct: Bovine brains were obtained from Pel-Freeze Biologicals, and the caudate nuclei were dissected out; tissue Pel-Freeze Biologicals; host or cells: bovine caudate nuclei (washed membranes)
T1 sequence (F1MGM3 1-403): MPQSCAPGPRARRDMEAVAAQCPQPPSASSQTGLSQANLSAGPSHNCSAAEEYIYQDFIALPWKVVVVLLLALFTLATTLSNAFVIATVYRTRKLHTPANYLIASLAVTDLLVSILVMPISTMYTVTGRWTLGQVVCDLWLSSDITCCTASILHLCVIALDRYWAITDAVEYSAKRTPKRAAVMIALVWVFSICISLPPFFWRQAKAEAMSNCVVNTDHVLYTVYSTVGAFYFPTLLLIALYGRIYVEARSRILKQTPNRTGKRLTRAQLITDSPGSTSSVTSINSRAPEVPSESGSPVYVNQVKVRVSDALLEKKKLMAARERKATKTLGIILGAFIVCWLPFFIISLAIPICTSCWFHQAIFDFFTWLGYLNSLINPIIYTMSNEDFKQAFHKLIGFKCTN
Protocol: The affinities of the compounds at the central 5-HT1D binding sites were determined using a modification of the binding assay described by Heuring and Peroutka (J. Neurosci. 7:894-903, 1987). Bovine brains were obtained from Pel-Freeze Biologicals, and the caudate nuclei were dissected out and frozen at -70° C. until the time that the membranes were prepared for the binding assays. At that time the tissues were homogenized in 40 volumes of ice-cold Tris-HCl buffer (50 mM, pH 7.4 at 22° C.) with a Techmar Tissumizer (setting 65 for 15 sec), and the homogenate was centrifuged at 39,800 g for 10 min. The resulting pellet was then resuspended in the same buffer, and the centrifugation and resuspension process was repeated three additional times to wash the membranes. Between the second and third washes the resuspended membranes were incubated for 10 min at 37° C. to facilitate the removal of endogenous 5-HT. The final pellet was resuspended in Tris buffer to a concentration of 25 mg of original tissue wet weight/ml for use in the binding assay. […] The assay tubes were incubated for 10 min at 37° C., and the contents were then rapidly filtered through GF/B filters (pretreated with 0.5% polyethylenimine), followed by four one-mL washes with ice-cold buffer. The radioactivity trapped by the filters was quantitated by liquid scintillation spectrometry, and specific [^3 H]5-HT binding to the 5-HT1D sites was defined as the difference between [^3 H]5-HT bound in the presence and absence of 10 μM 5-HT.
The affinities of compounds at the 5-HT1D receptor are expressed as IC50 values, i.e., the concentration required to inhibit 50% of the binding. These values were determined from 12-point competition curves using nonlinear regression (SYSTAT, SYSTAT, Inc., Evanston, Ill.).

[2] = target: T2, central 5-HT1A receptors (Rattus norvegicus, UniProt P19327); assay: 5-HT1A receptor binding ([3H]8-OH-DPAT displacement, rat hippocampal membranes); parameters: species or system male Sprague-Dawley rats
T2 construct: the brains were rapidly chilled and dissected to obtain the hippocampi; from tissue; host or cells: hippocampus of male Sprague-Dawley rats (washed membranes)
T2 sequence (P19327 1-422): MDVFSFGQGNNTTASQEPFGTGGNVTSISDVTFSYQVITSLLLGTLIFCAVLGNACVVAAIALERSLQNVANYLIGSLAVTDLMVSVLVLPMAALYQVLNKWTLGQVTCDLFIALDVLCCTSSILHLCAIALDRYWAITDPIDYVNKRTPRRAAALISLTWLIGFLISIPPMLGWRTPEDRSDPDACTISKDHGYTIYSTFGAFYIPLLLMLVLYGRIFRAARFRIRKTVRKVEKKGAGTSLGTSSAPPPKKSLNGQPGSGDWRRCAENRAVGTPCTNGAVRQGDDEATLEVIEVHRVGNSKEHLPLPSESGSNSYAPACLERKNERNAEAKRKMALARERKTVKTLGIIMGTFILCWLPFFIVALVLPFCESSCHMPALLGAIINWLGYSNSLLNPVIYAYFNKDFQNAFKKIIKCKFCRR
Protocol: The affinities of the compounds at the central 5-HT1A receptors were determined using a modification of the binding assay described by Taylor, et al., (J. Pharmacol. Exp. Ther. 236:118-125, 1986). Membranes for the binding assay were prepared from male Sprague-Dawley rats (150-250 g). The animals were killed by decapitation, and the brains were rapidly chilled and dissected to obtain the hippocampi. The hippocampi were either prepared that day or stored frozen (-70° C.) until the day of preparation. Membranes were prepared by homogenizing the tissue in 40 volumes of ice-cold Tris-HCl buffer (50 mM, pH 7.4 at 22° C.) using a Techmar Tissumizer (setting 65 for 15 sec), and the homogenate was centrifuged at 39800×g for 10 min. The resulting pellet was then resuspended in the same buffer, and the centrifugation and resuspension process was repeated three additional times to wash the membranes. Between the second and third washes the resuspended membranes were incubated for 10 min at 37° C. to facilitate the removal of endogenous ligands. The final pellet was resuspended in 67 mM Tris-HCl, pH 7.4, to a concentration of 2 mg of tissue original wet weight/200 μl. This homogenate was stored frozen (-70° C.) until the day of the binding assay. […] The assay tubes were incubated for 10 min at 37° C., and the contents were then rapidly filtered through GF/B filters (pretreated with 0.5% polyethylenimine), followed by four one-mL washes with ice cold buffer. The radioactivity trapped by the filters was quantitated by liquid scintillation spectrometry, and specific [^3 H]8-OH-DPAT binding to the 5-HT1A sites was defined as the difference between [^3 H]8-OH-DPAT bound in the presence and absence of 10 μM 5-HT.
The affinity of the particular compound at the 5-HT1A receptor is expressed as IC50 value, i.e., the concentration required to inhibit 50% of the binding. The IC50 values were determined from 12-point competition curves using nonlinear regression (SYSTAT, SYSTAT, INC., Evanston, Ill.).

[3] = test system: Brain 5-hydroxyindoles; assay: brain 5-hydroxyindoles in vivo after subcutaneous injection; parameters: species or system male albino rats; conditions: 1 hour, * = P<0.05 vs control
Protocol: (§1) Certain compounds were evaluated to determine their ability to affect the 5-hydroxyindoles serotonin, 5-hydroxyindole acetic acid (5HIAA) and serum corticosterone, in vivo, using the following procedures.
(§2) Compounds in aqueous solution were injected subcutaneously into male albino rats. Rats were decapitated one hour later. Trunk blood was collected and allowed to clot; after centrifugation, serum was stored frozen prior to analysis. Whole brain was removed and frozen on dry ice, then stored frozen prior to analysis. Serum corticosterone concentration was measured spectrofluorometrically (J. H. Solem and T. Brinch-Johnsen, "An evaluation of a method for determination of free corticosteroids in minute quantities of mouse plasma," Scand. J. Clin. Lab. Invest. (Suppl. 80), 1.14 (1965).) 5-Hydroxyindoleacetic acid (5HIAA) concentration in whole brain was measured by liquid chromatography with electrochemical detection. (Ray W. Fuller and Kenneth W. Perry, "Effects of buspirone and its metabolite, 1-(2-pyrimidinyl)piperazine, on brain monoamines and their metabolites in rats", J. Pharmacol. Exp. Ther. 248, 50-56 (1989).) The results are provided in Table III.

[4] = test system: serum corticosterone; assay: serum corticosterone in vivo after subcutaneous injection; parameters: species or system male albino rats; conditions: 1 hour, * = P<0.05 vs control
Protocol: as §1, §2

[5] = [3H]5-HT 1.7-1.9 nM, bovine caudate, 8-OH-DPTA and mesulergine 100 nM as masks, pH 7.4, 37° C., 10 min, read-out: 5HT1D IC50 (concentration required to inhibit 50% of the binding)
[6] = [3H]8-OH-DPAT 1.0 nM, rat hippocampi, pH 7.4, 37° C., 10 min, read-out: 5HT1A IC50 (concentration required to inhibit 50% of the binding)

SMILES | IC50 [1] | IC50 [2] | Brain 5-HIAA ([3]; 0.003 mg/Kg s.c.) | Brain serotonin ([3]; 0.003 mg/Kg s.c.) | Brain 5-HIAA ([3]; 0.03 mg/Kg s.c.) | Brain serotonin ([3]; 0.03 mg/Kg s.c.) | Brain 5-HIAA ([3]; 0.3 mg/Kg s.c.) | Brain serotonin ([3]; 0.3 mg/Kg s.c.) | Serum Corticosterone ([4]; 0.003 mg/Kg s.c.) | Serum Corticosterone ([4]; 0.03 mg/Kg s.c.) | Serum Corticosterone ([4]; 0.3 mg/Kg s.c.) | IC50 [1, 5] | IC50 [2, 6]
CCCN(CCC)[C@H]1Cc2c(C(C)=O)ccc3c2[C@@H](CN3)C1 (relative stereo) [Example 3, 6-acetyl-4-(di-n-propylamino)-1,2,2a,3,4,5-hexahydrobenz[cd]indole] | 7.47 nM | 0.63 nM |  |  |  |  |  |  |  |  |  |  | 
CCCN(CCC)C1Cc2c(C(=O)C(C)C)ccc3c2C(CN3)C1 (single isomer, unassigned; (-)) [Example 9, (-)-6-(2-methylpropanoyl)-4-(di-n-propylamino)-1,2,2a,3,4,5-hexahydrobenz[cd]indole] |  |  | 1.68 ± 0.10 n moles/g | 1.83 ± 0.08 n moles/g | 1.91 ± 0.06 n moles/g | 1.90 ± 0.10 n moles/g | 1.74 ± 0.04 n moles/g | 1.69 ± 0.06 n moles/g | 4.1 ± 0.5 μg/100 ml | 6.0 ± 1.6 μg/100 ml | 6.7 ± 2.0 μg/100 ml | 3130 nM | 54.9 nM
CCCN(CCC)[C@H]1Cc2c(C(C)=O)ccc3c2[C@H](CN3)C1 [Example 4, (2aR,4R)-6-acetyl-4-(di-n-propylamino)-1,2,2a,3,4,5-hexahydrobenz[cd]indole] |  |  |  |  |  |  |  |  |  |  |  | 236 nM | 0.8 nM
CCCN(CCC)[C@@H]1Cc2c(C(C)=O)ccc3c2[C@@H](CN3)C1 [Example 5, (2aS,4S)-6-acetyl-4-(di-n-propylamino)-1,2,2a,3,4,5-hexahydrobenz[cd]indole] |  |  |  |  |  |  |  |  |  |  |  | 129 nM | 0.31 nM
CCCN(CCC)[C@H]1Cc2c(C(C)=O)ccc3c2[C@@H](CN3)C1 [Example 6, (+)-(2aS,4R)-6-acetyl-4-(di-n-propylamino)-1,2,2a,3,4,5-hexahydrobenz[cd]indole] |  |  | 1.81 ± 0.14 n moles/g | 2.46 ± 0.14 n moles/g | 1.58 ± 0.08 n moles/g | 2.99 ± 0.06 n moles/g | 1.41 ± 0.03 n moles/g | 3.08 ± 0.04 n moles/g | 5.8 ± 1.0 μg/100 ml | 10.6 ± 2.0 μg/100 ml | 42.2 ± 1.1 μg/100 ml | 6.25 nM | 0.3 nM
CCCN(CCC)[C@@H]1Cc2c(C(C)=O)ccc3c2[C@H](CN3)C1 [Example 7, (-) (2aR,4S)-6-acetyl-4-(di-n-propylamino)-1,2,2a,3,4,5-hexahydrobenz[cd]indole] |  |  | 2.06 ± 0.13 n moles/g | 2.75 ± 0.05 n moles/g | 1.87 ± 0.07 n moles/g | 2.57 ± 0.10 n moles/g | 1.77 ± 0.17 n moles/g | 2.85 ± 0.08 n moles/g | 3.8 ± 0.5 μg/100 ml | 6.5 ± 2.6 μg/100 ml | 8.4 ± 4.0 μg/100 ml | 8500 nM | 6.61 nM
CCCN(CCC)[C@H]1Cc2c(C(=O)C(C)C)ccc3c2[C@@H](CN3)C1 [Example 8, (+)-(2aS,4R)-6-(2-methylpropanoyl)-4-(di-n-propylamino)-1,2,2a,3,4,5-hexahydrobenz[cd]indole] |  |  | 1.56 ± 0.10 n moles/g | 1.88 ± 0.05 n moles/g | 1.34 ± 0.06 n moles/g | 2.26 ± 0.06 n moles/g | 1.30 ± 0.07 n moles/g | 2.26 ± 0.16 n moles/g | 3.6 ± 0.7 μg/100 ml | 27.1 ± 6.4 μg/100 ml | 42.0 ± 0.4 μg/100 ml | 1.24 nM | 0.25 nM
CCCN(CCC)[C@@H]1Cc2c(C(=O)CC)ccc3c2[C@H](CN3)C1 [Example 10, (-)-(2aR,4S)-6-(propanoyl)-4-(di-n-propylamino)-1,2,2a,3,4,5-hexahydrobenz[cd]indole] |  |  |  |  |  |  |  |  |  |  |  | 9000 nM | 9.47 nM
CCCN(CCC)[C@H]1Cc2c(C(=O)c3ccccc3)ccc3c2[C@@H](CN3)C1 [Example 12, (+)-(2aS,4R)-6-(benzoyl)-4-(di-n-propylamine)-1,2,2a,3,4,5-hexahydrobenz[cd]indole] |  |  |  |  |  |  |  |  |  |  |  | 1.78 nM | 0.34 nM
CCCN(CCC)[C@H]1Cc2c(C(=O)Cc3ccccc3)ccc3c2[C@@H](CN3)C1 [Example 13, (+)-(2aS,4R)-6-(2-phenylethanoyl)-4-(di-n-propylamino)-1,2,2a,3,4,5-hexahydrobenz[cd]indole] |  |  |  |  |  |  |  |  |  |  |  | 2.7 nM | 0.98 nM
